Source: patent publication US10238688B2, “Combination therapies for bladder cancer” (GENEDIA BIOTECH CO. LTD., priority 2015, dated 2019)

Assays:
5637 = experiment: MTT cell survival / IC50, 5637 cells; type: cell-based, human; conditions: for Cell survival (%) / Single drug 4X Cell Survival (%): 5637; for Cell survival (%): Table S3, ng/ml: Pi 40, Pa 160, EH 250, Ci 1500, Mi 200, 1=Ci/Mi, 2=EH/Ci/Mi, 3=Pa/Ci/Mi, 4=Pi/Ci/Mi; for Single drug 4X Cell Survival (%): ng/ml: EH 1000, Ci 6000, Mi 800, Pi 160, Pa 640, Ge 20, EH/Ci/Mi regimen; for Cell survival 72 hours / ACS (%): 5637 cells; for Cell survival 72 hours: Table 4 (A); for ACS (%): Table 4 (B)
Method: (§1) The clinical grade of the chemotherapeutics (NCI Dictionary of Cancer Terms) was provided by the First Affiliated Hospital of Harbin Medical University: Pirarubicin (Pi, Wanle, Shenzhen), Paclitaxel (Pa, Taiji, Sichuan), Adriamycin (Ad, Pfizer, Jiangsu), Epirubicin Hydrochloride (EH, Haizheng, Zhejiang), Hydroxycamptothecin (Hy, Lishizhen, Hubei), Cisplatin (Ci, Haosen, Jiangsu), Gemcitabine (Ge, Haosen, Jiangsu) and Mitomycin (Mi, Haizheng, Zhejiang). The drug induced cell death was determined by a thiazolyl […] (MTT, 490 nm reading) based cell proliferation assay in the cultured cells following treatment by various concentrations of drugs for 72 hours. The relative chemoresistance to each drug of all cell lines was calculated with the lowest IC50 as a reference. The overall chemoresistance of each cell line was described as “chemoresistance index”, the numerator of the total relative IC50 to all the drugs over the number of drugs to rank the overall resistance state of each cell line to the six chemotherapeutics collectively.
(§2) The relative IC50 (fold) of each drug of all nine cell lines was normalized to the lowest IC50 in the most sensitive cell line (FIG. 2G), to describe the single drug resistance of cell lines. The overall chemoresistance of each cell line, a “chemoresistance index” (the numerator of the total relative IC50 over the number of drugs) (FIG. 2G) were calculated to rank the overall resistance state of each cell line to this six chemotherapeutics.
Twenty six-drug combinations at the indicated doses were initially generated through a random number generator (using MATLAB MathWorks©, Natick, Mass., U.S.) (The upper half of Table 1). The cell survival (% over the not drug control) of treated cells was determined and then used for a calculation of the average cumulative cell survival (%, ACS: the sum of cell survival (%) per combination divided by the number of cell lines tested). ACS<30% was used to separate the effective from the not-effective combinations.

SV-HUC-1 = type: cell-based; conditions: for Single drug 4X Cell Survival (%): SV-HUC-1, ng/ml: EH 1000, Ci 6000, Mi 800, Pi 160, Pa 640, Ge 20, EH/Ci/Mi regimen; for Cell survival 72 hours / ACS (%): SV-HUC-1 cells; for Cell survival 72 hours: Table 4 (A); for ACS (%): Table 4 (B)
Method: as §1, §2

ER Stress pathway = experiment: Cignal Finder dual-luciferase pathway reporter, ER Stress; type: cell-based, human; conditions: for Relative activity, ER Stress reporter: luc/Renluc relative to negative control reporter, single drug at 4 folds vs EH/Ci/Mi combination
Method: (§3) The pathway analysis was performed with Qiagen's Cignal Finder Pathway Reporter Array systems according to the manufacturer's instructions. The pathway-focused dual-luciferase reporter construct was a mixture of an inducible transcription factor responsive firefly luciferase reporter and constitutively expressing renilla construct. Transcriptional response element (TRE) sequence response elements to each specific transcriptional factor triggered by the different signaling pathways are positioned before the TATA box of firefly luciferase reporter gene. The extent of activity of the reporter reflects the level of activity of the particular signaling pathway. CMV controlled renilla expression vector is co-transfected into the cell as an internal control. Non-inducible reporter construct that lacks the transcriptional factor binding sequence and could not be induced by any transcription factors is used as a negative control. Cells transfected with CMV directed firefly luciferase reporter gene serve as a positive control. Briefly, cells seeded in 6-well plates were transfected with Cignal finder pathway arrays according to the manufacturer's instructions (Qiagen). Then cells were seeded onto 96-well plates. Ci (6000 ng/mL), Mi (800 ng/mL), or EH (1000 ng/mL) and Ci/Mi/EH combination (Ci, 1500 ng/mL, Mi, 800 ng/mL and EH, 1000 ng/m L) were then added to the cells 24 h post-transfection. After 6 h of incubation with the different drugs at 37° C., cells were lysed and a dual luciferase assay (for firefly and renilla luciferase) was performed using a PromegaGloMax 20/20 illuminometer. The firefly luciferase activities were normalized over the renilla luciferase activities after background activity determined by luciferase activities of negative controls was subtracted. A triple test of cell survival under these drug doses was also performed by MTT assay following 18 h incubation at 37° C. […]

Hypoxia pathway = experiment: Cignal Finder dual-luciferase pathway reporter, Hypoxia; type: cell-based, human; set-up: key to Relative activity, Hypoxia reporter: firefly/renilla ratio, background (negative control) subtracted; conditions: for Relative activity, Hypoxia reporter: luc/Renluc relative to negative control reporter, single drug at 4 folds vs EH/Ci/Mi combination
Method: as §3

[1] = system: DNA Damage response pathway; experiment: Cignal Finder dual-luciferase pathway reporter, DNA Damage response (5637, Biu87, UM-UC-3, H-bc, SV-HUC-1); type: cell-based, human; set-up: key to Relative activity, DNA Damage reporter: firefly/renilla ratio, background (negative control) subtracted; conditions: for Relative activity, DNA Damage reporter: luc/Renluc relative to negative control reporter, single drug at 4 folds vs EH/Ci/Mi combination
Method: as §3, with “Ci (6000 ng/mL), Mi (800 ng/mL), or EH (1000 ng/mL) and Ci/Mi/EH combination (Ci, 1500 ng/mL, Mi, 800 ng/mL and EH, 1000 ng/m L) were then added to the cells 24 h post-transfection.” left out

## N.N.[Cl][Pt][Cl] [Ci, (SP-4-2)-diamminedichloroplatinum(II)]
5637
  Cell survival (%): 20.32%
  Single drug 4X Cell Survival (%): 1.49%
  Cell survival 72 hours: 2.23%
  ACS (%): 2.23%
SV-HUC-1
  Single drug 4X Cell Survival (%): 26.21%
  Cell survival 72 hours: 26.21%
  ACS (%): 26.21%
ER Stress pathway; 5637 cells
  relative drug trigged pathway activity over the no-drug level, ER Stress: 1.82 fold
  Relative activity, ER Stress reporter: 47.45
ER Stress pathway; Biu87 cells
  digitalized pathway activity, ER Stress: 0 (null (0) if neither of the above holds)
  relative drug trigged pathway activity over the no-drug level, ER Stress: 0.83 fold
  Relative activity, ER Stress reporter: 18.10
ER Stress pathway; H-bc cells
  digitalized pathway activity, ER Stress: 0 (null (0) if neither of the above holds)
  relative drug trigged pathway activity over the no-drug level, ER Stress: 0.82 fold
  Relative activity, ER Stress reporter: 101.61
ER Stress pathway; SV-HUC-1 cells
  digitalized pathway activity, ER Stress: 0 (null (0) if neither of the above holds)
  relative drug trigged pathway activity over the no-drug level, ER Stress: 1.12 fold
  Relative activity, ER Stress reporter: 115.00
ER Stress pathway; UM-UC-3 cells
  digitalized pathway activity, ER Stress: 0 (null (0) if neither of the above holds)
  Relative activity, ER Stress reporter: 67.50
ER Stress pathway; Um-Uc-3 cells
  relative drug trigged pathway activity over the no-drug level, ER Stress: 0.83 fold
Hypoxia pathway; 5637 cells
  relative drug trigged pathway activity over the no-drug level, Hypoxia: 1.64 fold
  Relative activity, Hypoxia reporter: 37.36
Hypoxia pathway; Biu87 cells
  digitalized pathway activity, Hypoxia: 0 (null (0) if neither of the above holds)
  relative drug trigged pathway activity over the no-drug level, Hypoxia: 1.32 fold
  Relative activity, Hypoxia reporter: 10.01
Hypoxia pathway; H-bc cells
  relative drug trigged pathway activity over the no-drug level, Hypoxia: 0.39 fold
  Relative activity, Hypoxia reporter: 49.11
Hypoxia pathway; SV-HUC-1 cells
  digitalized pathway activity, Hypoxia: 0 (null (0) if neither of the above holds)
  relative drug trigged pathway activity over the no-drug level, Hypoxia: 1.19 fold
  Relative activity, Hypoxia reporter: 30.20
Hypoxia pathway; UM-UC-3 cells
  digitalized pathway activity, Hypoxia: 0 (null (0) if neither of the above holds)
  Relative activity, Hypoxia reporter: 41.68
Hypoxia pathway; Um-Uc-3 cells
  relative drug trigged pathway activity over the no-drug level, Hypoxia: 0.66 fold
[1]; 5637 cells
  relative drug trigged pathway activity over the no-drug level, DNA Damage: 2.17 fold
  Relative activity, DNA Damage reporter: 0.48
[1]; Biu87 cells
  digitalized pathway activity, DNA Damage: 0 (null (0) if neither of the above holds)
  relative drug trigged pathway activity over the no-drug level, DNA Damage: 0.63 fold
  Relative activity, DNA Damage reporter: 0.94
[1]; H-bc cells
  relative drug trigged pathway activity over the no-drug level, DNA Damage: 1.69 fold
  Relative activity, DNA Damage reporter: 4.19
[1]; SV-HUC-1 cells
  relative drug trigged pathway activity over the no-drug level, DNA Damage: 1.54 fold
  Relative activity, DNA Damage reporter: 3.70
[1]; UM-UC-3 cells
  digitalized pathway activity, DNA Damage: 0 (null (0) if neither of the above holds)
  Relative activity, DNA Damage reporter: 2.38
[1]; Um-Uc-3 cells
  relative drug trigged pathway activity over the no-drug level, DNA Damage: 0.68 fold

## COc1cccc2c1C(=O)c1c(O)c3c(c(O)c1C2=O)C[C@@](O)(C(=O)CO)C[C@@H]3[C@@H]1C[C@H](N)[C@@H](O)[C@H](C)O1 [EH, (8R,10S)-10-((2S,4S,5R,6S)-4-amino-5-hydroxy-6-methyltetrahydro-2H-pyran-2-yl)-6,8,11-trihydroxy-8-(2-hydroxyacetyl)-1-methoxy-7,8,9,10-tetrahydrotetracene-5,12-dione]
5637
  Cell survival (%): 14.75%
  Single drug 4X Cell Survival (%): 2.23%
  Cell survival 72 hours: 2.23%
  ACS (%): 2.23%
SV-HUC-1
  Single drug 4X Cell Survival (%): 61.89%
  Cell survival 72 hours: 61.89%
  ACS (%): 61.89%
ER Stress pathway; 5637 cells
  relative drug trigged pathway activity over the no-drug level, ER Stress: 3.26 fold
  Relative activity, ER Stress reporter: 84.76
ER Stress pathway; Biu87 cells
  relative drug trigged pathway activity over the no-drug level, ER Stress: 1.66 fold
  Relative activity, ER Stress reporter: 36.36
ER Stress pathway; H-bc cells
  digitalized pathway activity, ER Stress: 0 (null (0) if neither of the above holds)
  relative drug trigged pathway activity over the no-drug level, ER Stress: 1.38 fold
  Relative activity, ER Stress reporter: 28.61
ER Stress pathway; SV-HUC-1 cells
  relative drug trigged pathway activity over the no-drug level, ER Stress: 2.93 fold
  Relative activity, ER Stress reporter: 300.00
ER Stress pathway; UM-UC-3 cells
  digitalized pathway activity, ER Stress: 0 (null (0) if neither of the above holds)
  Relative activity, ER Stress reporter: 120.98
ER Stress pathway; Um-Uc-3 cells
  relative drug trigged pathway activity over the no-drug level, ER Stress: 1.48 fold
Hypoxia pathway; 5637 cells
  relative drug trigged pathway activity over the no-drug level, Hypoxia: 2.27 fold
  Relative activity, Hypoxia reporter: 51.46
Hypoxia pathway; Biu87 cells
  relative drug trigged pathway activity over the no-drug level, Hypoxia: 2.26 fold
  Relative activity, Hypoxia reporter: 17.13
Hypoxia pathway; H-bc cells
  relative drug trigged pathway activity over the no-drug level, Hypoxia: 1.72 fold
  Relative activity, Hypoxia reporter: 57.60
Hypoxia pathway; SV-HUC-1 cells
  relative drug trigged pathway activity over the no-drug level, Hypoxia: 1.74 fold
  Relative activity, Hypoxia reporter: 44.00
Hypoxia pathway; UM-UC-3 cells
  digitalized pathway activity, Hypoxia: 0 (null (0) if neither of the above holds)
  Relative activity, Hypoxia reporter: 73.93
Hypoxia pathway; Um-Uc-3 cells
  relative drug trigged pathway activity over the no-drug level, Hypoxia: 1.18 fold
[1]; 5637 cells
  relative drug trigged pathway activity over the no-drug level, DNA Damage: 3.42 fold
  Relative activity, DNA Damage reporter: 0.75
[1]; Biu87 cells
  digitalized pathway activity, DNA Damage: 0 (null (0) if neither of the above holds)
  relative drug trigged pathway activity over the no-drug level, DNA Damage: 1.04 fold
  Relative activity, DNA Damage reporter: 1.58
[1]; H-bc cells
  relative drug trigged pathway activity over the no-drug level, DNA Damage: 6.13 fold
  Relative activity, DNA Damage reporter: 3.99
[1]; SV-HUC-1 cells
  relative drug trigged pathway activity over the no-drug level, DNA Damage: 2.5 fold
  Relative activity, DNA Damage reporter: 6.00
[1]; UM-UC-3 cells
  Relative activity, DNA Damage reporter: 5.96
[1]; Um-Uc-3 cells
  relative drug trigged pathway activity over the no-drug level, DNA Damage: 1.71 fold
